Laboratory results from BindingDB's records for PubMed 39291025 (PI Health Sciences).

Assay: Inhibition of cGAS in human THP-1 cells […] incubated for 18 hrs by Lucia luciferase reporter based counter assay

Row | SMILES | IC50
1 | C[C@H]1CN2CC[C@@H]1n1c(nc3cc(Cl)ccc31)O[C@H]1C[C@@H](C(=O)O)N(C1)c1nc(nc3c1oc1cc(Cl)ccc13)CCOCCCC2=O | 9.5 µM
2 | C[C@@H]1CN2CC[C@H]1n1c(nc3cc(Cl)ccc31)O[C@H]1C[C@@H](C(=O)O)N(C1)c1nc(nc3c1oc1ccccc13)CCOCCCC2=O | > 10 µM
3 | C[C@H]1CN2CC[C@H]1n1c(nc3ccccc31)O[C@H]1C[C@@H](C(=O)O)N(C1)c1nc(nc3c1oc1ccccc13)C(F)(F)COCCCCC2=O | 14 µM
4 | CC(=O)[C@@H]1C[C@H]2CN1c1nc(nc3c1oc1ccccc13)CCOCCCC(=O)N1CC[C@@H]([C@@H](C)C1)n1c(nc3cc(Cl)ccc31)O2 | > 10 µM
5 | C[C@H]1CN2CC[C@@H]1n1c(nc3ccccc31)O[C@H]1C[C@@H](C(=O)O)N(C1)c1nc(nc3c1oc1cc(Cl)ccc13)C(F)(F)CCCOCC2=O | > 10 µM
6 | C[C@H]1CN2CC[C@@H]1n1c(nc3cc(Cl)ccc31)O[C@H]1C[C@@H](C(=O)O)N(C1)c1nc(nc3c1oc1ccccc13)C(F)(F)OCCCCC2=O | > 10 µM
7 | C[C@@H]1CN2CC[C@H]1n1c(nc3ccccc31)O[C@H]1C[C@@H](C(=O)O)N(C1)c1nc(nc3c1oc1ccccc13)CCCCCOC2=O | 8.2 µM

These reach a lower IC50. Values come first.

Row | IC50 | SMILES
8 | 7.3 µM | C[C@H]1CN2CC[C@@H]1n1c(nc3ccccc31)O[C@H]1C[C@@H](C(=O)O)N(C1)c1nc(nc3c1oc1ccccc13)CCCCCN(C)C2=O
9 | 6.6 µM | C[C@H]1CN2CC[C@@H]1n1c(nc3ccccc31)O[C@H]1C[C@@H](C(=O)O)N(C1)c1nc(nc3c1oc1ccccc13)C(F)(F)CCCCC(F)(F)C2=O
10 | 6 µM | Cc1cccc2c1nc1n2[C@@H]2CCN(C[C@H]2C)C(=O)CCCCCC(F)(F)c2nc(c3oc4ccccc4c3n2)N2C[C@H](C[C@H]2C(=O)O)O1
